Results: paper PMC3723128 (Journal of medicinal chemistry, 2013)

How the values were obtained:
Type in all cases: biochemical
recombinant hDHFR = biological target: T1, recombinant hDHFR (Homo sapiens, UniProt P00374); assay: Inhibition of recombinant hDHFR; conditions: compared to unsubstituted phenyl compound 4
T1 sequence (P00374 1-187): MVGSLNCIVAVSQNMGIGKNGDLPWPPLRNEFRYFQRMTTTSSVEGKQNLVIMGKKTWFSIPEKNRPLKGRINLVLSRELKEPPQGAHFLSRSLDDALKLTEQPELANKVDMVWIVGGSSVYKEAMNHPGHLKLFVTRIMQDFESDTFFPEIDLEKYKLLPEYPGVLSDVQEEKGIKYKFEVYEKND

recombinant pjDHFR = recombinant pjDHFR (Pneumocystis jirovecii, UniProt Q9UUP5); assay: Inhibition of recombinant pjDHFR
maDHFR = biological target: T2, maDHFR (Mycobacterium avium, UniProt O30463); assay: Inhibition of maDHFR
T2 sequence (O30463 1-181): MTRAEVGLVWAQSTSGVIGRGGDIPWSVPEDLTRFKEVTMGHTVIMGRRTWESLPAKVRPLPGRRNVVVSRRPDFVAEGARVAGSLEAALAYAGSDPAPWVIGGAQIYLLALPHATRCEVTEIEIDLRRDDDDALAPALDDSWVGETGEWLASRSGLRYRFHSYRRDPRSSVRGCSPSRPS

SMILES: Nc1nc(N)c2cc(Nc3cccc4ccccc34)cnc2n1 [Compound 13, N^6-1-naphthylpyrido[2,3-d]pyrimidine-2,4,6-triamine]
- fold loss in potency against hDHFR (recombinant hDHFR): 10 fold

SMILES: CN(c1ccccc1)c1cnc2nc(N)nc(N)c2c1 [Compound 16, N^6-methyl-N^6-phenylpyrido[2,3-d]pyrimidine-2,4,6-triamine]
- fold more potent than TMP against pjDHFR (recombinant pjDHFR): about 50 fold

SMILES: CN(c1cc(F)c(F)c(F)c1)c1cnc2nc(N)nc(N)c2c1 [Compound 26, N^6-methyl-N^6-(3,4,5-trifluorophenyl)pyrido[2,3-d]pyrimidine-2,4,6-triamine]
- fold more selective for pjDHFR than PTX (recombinant pjDHFR): 18 fold
- fold difference in potency for pjDHFR made by the N9-Me moiety (recombinant pjDHFR; pairs 16/4 and 26/15, from IC50 values in Table 5): ~200 fold

SMILES: COc1cc(N(C)c2cnc3nc(N)nc(N)c3c2)cc(OC)c1OC [Compound 20, N^6-methyl-N^6-(3,4,5-trimethoxyphenyl)pyrido[2,3-d]pyrimidine-2,4,6-triamine]
- inhibitory potency against maDHFR (maDHFR): subnanomolar

SMILES: CN(c1cnc2nc(N)nc(N)c2c1)c1cccc2ccccc12 [Compound 24, N^6-methyl-N^6-1-naphthylpyrido[2,3-d]pyrimidine-2,4,6-triamine]
- rl/ma selectivity ratio (maDHFR; IC50 rlDHFR / IC50 maDHFR): 10.3

SMILES: Nc1nc(N)c2cc(Nc3ccc4ccccc4c3)cnc2n1 [Compound 11, N^6-2-naphthylpyrido[2,3-d]pyrimidine-2,4,6-triamine]
- fold loss in potency against hDHFR (recombinant hDHFR): 10 fold

SMILES: COc1cc(Nc2cnc3nc(N)nc(N)c3c2)cc(OC)c1OC [Compound 8, N^6-(3,4,5-trimethoxyphenyl)pyrido[2,3-d]pyrimidine-2,4,6-triamine]
- h/pj selectivity ratio (recombinant pjDHFR; IC50 hDHFR / IC50 pjDHFR): 12.7
